What was measured:
[1] = system: valine, alanine and gamma-aminobutyric acid (GABA) concentrations in rat brain; test: Brain valine, alanine and gamma-aminobutyric acid (GABA) concentrations; type: in vivo; settings: 2 × 75 μmol/kg per os
[2] = system: NA, DA, 5-HT, 5-HIAA and DOPAC concentrations in rat hypothalamus; test: Rat hypothalamus amine and amine metabolite concentrations; type: in vivo
Method: The effects of various doses of CVT-P040 on the concentrations of hypothalamus amine neurotransmitters and their metabolites were evaluated by examining concentrations of noradrenaline (NA), dopamine (DA), 5-hydroxytryptamine (5-HT), 5-hydroxyindoleacetic acid (5-HIAA) and 3,4-dihydroxyphenylacetic acid (DOPAC) in rat hypothalami 5 hours after the injection of the drug. […] The brains were removed and divided in half. One half of the brain was frozen in isopentane on dry ice and retained for estimates of amino acid neurotransmitter concentrations. The other half had the hypothalamus removed and frozen on dry ice for later estimates of amines and their metabolites according to the method of Sloley, B. D. and Goldberg J. I. (1991), Determination of γ-glutamyl conjugates of monoamines by means of high-performance liquid chromatography with electrochemical detection and application to gastropod tissues, J. Chromatog. 567: 49-56. The rest of the brain was frozen on dry ice for ex vivo examination of MAO activity as described earlier.

[3] = system: valine, alanine and gamma-aminobutyric acid (GABA) concentrations in rat brain; test: Brain valine, alanine and gamma-aminobutyric acid (GABA) concentrations; type: in vivo
Method: Effects of various doses of CVT-P040, CVT-P041 and phenelzine on the concentrations of some brain amino acids were evaluated by examining concentrations of gamma-aminobutyric acid (GABA) 5 hours after the injection of the drug. Briefly, rats were injected with CVT-P040 ([…]), vehicle, or phenelzine (150 μmol/kg) and killed 3 or 5 hours later. The brains were removed and divided in half. One half of the brain was frozen in isopentane on dry ice and retained for estimates of GABA concentrations. GABA and other amino acid concentrations were estimated using the method of Wong, J. T. F., Baker, G. B. and Coutts, R. T. (1990), A rapid, sensitive assay for γ-aminobutyric acid in brain using electron-capture gas chromatography, Res. Comm. Chem. Path. Pharmacol. 70: 115-122.

[4] = system: rat brain and liver monoamine oxidase-B; test: Monoamine oxidase-B inhibiting activity ex vivo; type: in vivo
Method: Radiolabelled β-phenylethylamine was employed as a substrate for monoamine oxidase-B. The compounds of interest were either injected intraperitoneally in DMSO or administered by gavage in water for various periods. The animals were killed by decapitation and the brains and livers immediately removed and frozen until assayed for monoamine oxidase-B activity. Tissues were homogenized and appropriately diluted in buffer prior to incubation. Incubations proceeded at 37° C. for 10 minutes. Incubation was terminated by the addition of acid and the radiolabelled product (phenylacetic acid) was extracted and quantified by liquid scintillation counting procedures. Incubations were done in triplicate and incubations containing phenelzine were included for comparison. The percent inhibition of monoamine oxidase-B activity compared to controls containing no drug was calculated.
Values are the mean ± the standard error based on (n) determinations.
Oral doses were administered as 75 μmol/kg on day 1, 75 μmol/kg on
day 2 and the animals were killed 5 hours later.

[5] = biological target: T1, rat brain monoamine oxidase-A (Rattus norvegicus, UniProt P21396); test: Monoamine oxidase-A inhibiting activity in vitro (radiochemical, 5-hydroxytryptamine substrate, rat brain homogenate); type: biochemical
T1 construct: appropriately diluted homogenates of rat brain or liver; from tissue; host or cells: rat brain or liver homogenate
T1 sequence (P21396 1-526): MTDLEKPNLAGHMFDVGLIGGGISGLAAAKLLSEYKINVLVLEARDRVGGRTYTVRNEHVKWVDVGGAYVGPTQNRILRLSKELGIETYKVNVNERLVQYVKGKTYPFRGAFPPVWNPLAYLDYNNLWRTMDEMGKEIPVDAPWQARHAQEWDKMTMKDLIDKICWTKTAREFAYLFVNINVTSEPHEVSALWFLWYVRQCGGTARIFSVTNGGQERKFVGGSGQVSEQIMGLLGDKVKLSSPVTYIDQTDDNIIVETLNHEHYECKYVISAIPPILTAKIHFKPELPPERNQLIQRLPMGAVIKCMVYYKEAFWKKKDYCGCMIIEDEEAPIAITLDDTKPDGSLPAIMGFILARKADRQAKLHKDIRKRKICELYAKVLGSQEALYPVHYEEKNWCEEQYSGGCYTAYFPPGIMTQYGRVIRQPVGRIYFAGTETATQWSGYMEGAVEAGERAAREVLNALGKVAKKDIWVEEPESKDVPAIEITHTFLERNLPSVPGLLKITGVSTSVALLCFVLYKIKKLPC
Method: Radiolabelled 5-hydroxytryptamine was used as the substrate for monoamine oxidase-A. Various concentrations of the compounds were incubated in appropriately diluted homogenates of rat brain or liver in a 0.2 M potassium phosphate buffer. Incubations proceeded at 37° C. for 10 minutes. Incubation was terminated by the addition of acid and the radiolabelled product (5-hydroxyindoleacetic acid) was extracted and quantified by liquid scintillation counting procedures. Incubations were done in triplicate and incubations containing phenelzine were included for comparison. The percent inhibition of monoamine oxidase-A activity compared to controls without the compounds of the present invention was calculated.

For C#CCN(CCc1ccccc1)NC(C)=O [CVT-P041, N^1 -propargyl-N^2 -acetylphenelzine], the GABA [1] was 300 ± 22 µg/g, the Valine [1] was 26.4 ± 1.4 µg/g and the 5-HIAA ([2]; 150 μmol/kg, 5 hr, ip) was 179 ± 6 ng/g. For the same molecule, the 5-HT ([2]; 150 μmol/kg, 5 hr, ip) was 1100 ng/g, the DA ([2]; 150 μmol/kg, 5 hr, ip) was 461 ± 34 ng/g and the DOPAC ([2]; 150 μmol/kg, 5 hr, ip) was 91 ± 6 ng/g. It also gave an NA ([2]; 150 μmol/kg, 5 hr, ip) of 2141 ± 86 ng/g, a 5-HIAA ([2]; 2 × 75 μmol/kg per os) of 228 ± 17 ng/g and a DOPAC ([2]; 2 × 75 μmol/kg per os) of 50 ng/g. The NA ([2]; 2 × 75 μmol/kg per os) was 1749 ng/g, the GABA ([3]; 150 μmol/kg, 5 hr, ip) was 253 ± 0 µg/g and the Valine ([3]; 150 μmol/kg, 5 hr, ip) was 20.6 ± 0.5 µg/g. The GABA concentrations ([3]; doses as high as 150 μmol/kg, in words) was “did not elevate GABA concentrations”, the elevation of alanine ([3]; in words) was “elevation of alanine was not seen” and the “% Inhibition of Monoamine Oxidase-B” value ([4]; brain, 150 μmol/kg, 5 hr, i.p. in 10% DMSO (Table 4, MAO-B by title)) was 77.6 ± 0.4%. For the same molecule, the “% Inhibition of Monoamine Oxidase-B” value ([4]; brain, 2 × 75 μmol/kg per os (Table 4, MAO-B by title)) was 73.6 ± 2.2%, the “% Inhibition of Monoamine Oxidase-B” value ([4]; liver, 2 × 75 μmol/kg per os (Table 4, MAO-B by title)) was 97.4 ± 0.2% and the inhibition at 100 µM ([5]; 1 × 10^-4 M) was 79.5%. The inhibition at 10 µM ([5]; 1 × 10^-5 M) was 27.7%, the inhibition at 1 µM ([5]; 1 × 10^-6 M) was 4.2% and the inhibition at 0.1 µM ([5]; 1 × 10^-7 M) was 1.8%. For the same molecule, the inhibition at 0.01 µM ([5]; 1 × 10^-8 M) was 0.3%.
